Measured values from US12077503B2, “Substituted cyclic amides and their use as herbicides” (FMC CORPORATION, priority 2015, dated 2024).
Like-named read-outs stand apart in the source and are kept apart here.

Legend:
Type in all cases: in vivo
rice (Oryra sativa) = test: Test B flooded paddy test; conditions: Oryza sativa, Flood, 250 g ai/ha; scale of 0 to 100 where 0 is no effect and 100 is complete control; read-out: Rice plant response rating
How it was run: (§1)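 Evaluation by eye, against controls, occurred 13–15 d post-treatment in a greenhouse, using a 0 (no effect) to 100 (complete control) scale. Application was into the paddy water, 3 cm deep over the soil, on 2-leaf plants.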

[1] = tested on: sedge, umbrella (small-flower umbrella sedge, Cyperus difformis); test: Test B flooded paddy test; conditions: Cyperus difformis, Flood, 250 g ai/ha; scale of 0 to 100 where 0 is no effect and 100 is complete control; read-out: Sedge, Umbrella plant response rating
How it was run: as §1

[2] = tested on: ducksalad (Heteranthera limosa); test: Test B flooded paddy test; conditions: Heteranthera limosa, Flood, 250 g ai/ha; scale of 0 to 100 where 0 is no effect and 100 is complete control; read-out: Ducksalad plant response rating
How it was run: as §1

[3] = tested on: barnyardgrass (Echinochloa crus-galli); test: Test B flooded paddy test; conditions: Echinochloa crus-galli, Flood, 250 g ai/ha; scale of 0 to 100 where 0 is no effect and 100 is complete control; read-out: Barnyardgrass plant response rating
How it was run: as §1

Kochia (Kochia scoparia) = test: Test A postemergence; conditions: Bassia scoparia, post-emergence, 240 h, 125 g ai/ha
How it was run: (§2)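 Compounds were formulated in a non-phytotoxic solvent mixture with surfactant and applied as a preemergence directed soil spray after seeding, or sprayed postemergence over plants 2 to 10 cm tall at the one- to two-leaf stage. Evaluation after about 10 d compared treated with untreated controls, using a scale from 0 (no effect) to 100 (complete control).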

[4] = tested on: wheat (Triticum aestivum); test: Test A postemergence; conditions: Triticum aestivum, post-emergence, 240 h, 125 g ai/ha
How it was run: as §2

corn (Zea mays) = test: Test A postemergence; conditions: Zea mays, post-emergence, 240 h, 125 g ai/ha
How it was run: as §2

[5] = tested on: giant foxtail (Setaria faberii); test: Test A postemergence; conditions: Setaria faberi, post-emergence, 240 h, 125 g ai/ha
How it was run: as §2

[6] = tested on: barnyardgrass (Echinochloa crus-galli); test: Test A postemergence; conditions: Echinochloa crus-galli, post-emergence, 240 h, 125 g ai/ha
How it was run: as §2

[7] = tested on: blackgrass (Alopecurus myosuroides); test: Test A postemergence; conditions: Alopecurus myosuroides, post-emergence, 240 h, 125 g ai/ha
How it was run: as §2

[8] = tested on: ryegrass, Italian (Italian ryegrass, Lolium multiflorum); test: Test A postemergence; conditions: Lolium multiflorum, post-emergence, 240 h, 125 g ai/ha
How it was run: as §2

[9] = tested on: pigweed (Amaranthus retroflexus); test: Test A postemergence; conditions: Amaranthus retroflexus, post-emergence, 240 h, 125 g ai/ha
How it was run: as §2

[10] = tested on: Galium (catchweed bedstraw, Galium aparine); test: Test A postemergence; conditions: Galium, post-emergence, 240 h, 125 g ai/ha
How it was run: as §2

[11] = tested on: ragweed (common ragweed, Ambrosia elatior); test: Test A postemergence; conditions: Ambrosia artemisiifolia, post-emergence, 240 h, 125 g ai/ha
How it was run: as §2

[12] = tested on: pigweed (Amaranthus retroflexus); test: Test A preemergence; conditions: Amaranthus retroflexus, pre-emergence, 240 h; for pest or weed control at 125 g/ha: 125 g ai/ha, 0 to 100 scale where 0 is no effect and 100 is complete control; for pest or weed control at 500 g/ha: 500 g ai/ha
[13] = preemergence, read-out: Pigweed plant response rating

Work on `Cc1cc([C@H]2CN(C)C(=O)[C@@H]2C(=O)Nc2ccccc2C(F)(F)F)ccc1Cl` [Compound 932] yielded a pest or weed control at 250 g/ha (rice (Oryra sativa)) of 0%, a pest or weed control at 250 g/ha [1] of 0% and a pest or weed control at 250 g/ha [2] of 30%. For the same compound, the pest or weed control at 250 g/ha [3] was 0%, the pest or weed control at 125 g/ha (Kochia (Kochia scoparia); Postemergence, visual injury after approximately 10 d, 0 to 100 scale where 0 is no effect and 100 is complete control, read-out: Plant response rating, Kochia) was 30% and the plant injury at 125 g/ha ([4]; Postemergence, visual injury after approximately 10 d, 0 to 100 scale where 0 is no effect and 100 is complete control, read-out: Plant response rating, Wheat) was 30%. The Corn plant response rating (crop injury, 0 = no effect, 100 = complete kill) at 125 g/ha (corn (Zea mays); Postemergence, visual injury after approximately 10 d, 0 to 100 scale where 0 is no effect and 100 is complete control) was 20%, the pest or weed control at 125 g/ha ([5]; Postemergence, visual injury after approximately 10 d, 0 to 100 scale where 0 is no effect and 100 is complete control, read-out: Plant response rating, Foxtail, Giant) was 90% and the pest or weed control at 125 g/ha ([6]; Postemergence, visual injury after approximately 10 d, 0 to 100 scale where 0 is no effect and 100 is complete control, read-out: Plant response rating, Barnyardgrass) was 90%. The pest or weed control at 125 g/ha ([7]; Postemergence, visual injury after approximately 10 d, 0 to 100 scale where 0 is no effect and 100 is complete control, read-out: Plant response rating, Blackgrass) was 40%, the pest or weed control at 125 g/ha ([8]; Postemergence, visual injury after approximately 10 d, 0 to 100 scale where 0 is no effect and 100 is complete control, read-out: Plant response rating, Ryegrass, Italian) was 30% and the pest or weed control at 125 g/ha ([9]; Postemergence, visual injury after approximately 10 d, 0 to 100 scale where 0 is no effect and 100 is complete control, read-out: Plant response rating, Pigweed) was 40%. For the same compound, the pest or weed control at 125 g/ha ([10]; Postemergence, visual injury after approximately 10 d, 0 to 100 scale where 0 is no effect and 100 is complete control, read-out: Plant response rating, Galium) was 40%, the pest or weed control at 125 g/ha ([11]; Postemergence, visual injury after approximately 10 d, 0 to 100 scale where 0 is no effect and 100 is complete control, read-out: Plant response rating, Ragweed) was 0% and the pest or weed control at 125 g/ha [12, 13] was 0%. For the same compound, the pest or weed control at 500 g/ha ([12]; preemergence, visual injury rating about 10 d after treatment, 0 to 100 scale (0 no effect, 100 complete control), read-out: Pigweed plant response rating) was 30%.

Work on `COc1c(F)ccc([C@H]2CNC(=O)[C@@H]2C(=O)Nc2cccc(F)c2F)c1Cl` [Compound 882] yielded a pest or weed control at 250 g/ha (rice (Oryra sativa)) of 0%, a pest or weed control at 250 g/ha [1] of 0% and a pest or weed control at 250 g/ha [2] of 100%. The pest or weed control at 250 g/ha [3] was 45%, the pest or weed control at 125 g/ha (Kochia (Kochia scoparia); postemergence, visual injury rating after approximately 10 d, read-out: Kochia plant response rating (0 to 100 scale, 0 no effect, 100 complete control)) was 60% and the plant injury at 125 g/ha ([4]; postemergence, visual injury rating after approximately 10 d, read-out: Wheat plant response rating (0 to 100 scale, 0 no effect, 100 complete control)) was 0%. For the same compound, the plant injury at 125 g/ha (corn (Zea mays); postemergence, visual injury rating after approximately 10 d, read-out: Corn plant response rating (0 to 100 scale, 0 no effect, 100 complete control)) was 80%, the pest or weed control at 125 g/ha ([5]; postemergence, visual injury rating after approximately 10 d, read-out: Foxtail, Giant plant response rating (0 to 100 scale, 0 no effect, 100 complete control)) was 70% and the pest or weed control at 125 g/ha ([6]; postemergence, visual injury rating after approximately 10 d, read-out: Barnyardgrass plant response rating (0 to 100 scale, 0 no effect, 100 complete control)) was 80%. For the same compound, the pest or weed control at 125 g/ha ([7]; postemergence, visual injury rating after approximately 10 d, read-out: Blackgrass plant response rating (0 to 100 scale, 0 no effect, 100 complete control)) was 40%, the pest or weed control at 125 g/ha ([8]; postemergence, visual injury rating after approximately 10 d, read-out: Ryegrass, Italian plant response rating (0 to 100 scale, 0 no effect, 100 complete control)) was 40% and the pest or weed control at 125 g/ha ([9]; postemergence, visual injury rating after approximately 10 d, read-out: Pigweed plant response rating (0 to 100 scale, 0 no effect, 100 complete control)) was 30%. It also gave a pest or weed control at 125 g/ha ([10]; postemergence, visual injury rating after approximately 10 d, read-out: Galium plant response rating (0 to 100 scale, 0 no effect, 100 complete control)) of 50%, a pest or weed control at 125 g/ha ([11]; postemergence, visual injury rating after approximately 10 d, read-out: Ragweed plant response rating (0 to 100 scale, 0 no effect, 100 complete control)) of 0% and a pest or weed control at 125 g/ha [12, 13] of 20%. For the same compound, the pest or weed control at 500 g/ha ([12]; Preemergence, visual injury vs untreated controls after approximately 10 d, read-out: Pigweed plant response rating (0 to 100 scale where 0 is no effect and 100 is complete control)) was 20%.
